Measurements taken from patent US11053221B2, “Substituted pyrimidines for inhibiting embryonic leucine zipper kinase activity” (Arrien Pharmaceuticals LLC, priority 2018, dated 2021).
Structures can show the parent of a compound that is named as a salt.

Tests used:
MELK = biological target: T1, MELK (Homo sapiens, UniProt Q14680); assay: HotSpot kinase assay, MELK; format: biochemical; conditions: HotSpot radiometric 33P ATP assay, 25° C., 120 min
T1 construct: purchased Reaction Biology Corporation
Experimental: (§1) In vitro profiling of the MELK, MELK (T460M) kinase panel was performed at Reaction Biology Corporation using the “HotSpot” assay platform. In vitro profiling of the FLT3, FLT3 mutant forms; FLT3 (D835Y), FLT3 (F594R595insR), FLT3 (F594R595insREY), FLT3 (ITD), FLT3 (ITD)-NPOS, FLT3 (ITD)-W51 and FLT3 (R595_E596insEY) kinase panel is performed in the same manner.
(§2) Briefly, specific kinase/substrate pairs along with required cofactors were prepared in reaction buffer; 20 mM Hepes (pH 7.5), 10 mM MgCl2, 1 mM EGTA, 0.02% Brij35, 0.02 mg/mL BSA, 0.1 mM Na3VO4, 2 mM DTT, 1% DMSO. Compounds were delivered into the reaction, followed ˜20 min later by addition of a mixture of ATP (Sigma) and ^33P ATP (PerkinElmer) to a final concentration of […]. Reactions were carried out at 25° C. for 120 min, followed by spotting of the reactions onto P81 ion exchange filter paper (Whatman). Unbound phosphate was removed by extensive washing of filters in 0.75% phosphoric acid. […] IC50 values and curve fits were obtained using Prism (GraphPad Software).

FLT3 = biological target: T2, FLT3 (Homo sapiens, UniProt P36888); assay: HotSpot kinase assay, FLT3; format: biochemical; conditions: HotSpot radiometric 33P ATP assay, 25° C., 120 min
T2 construct: purchased Reaction Biology Corporation
T2 sequence (P36888 27-993): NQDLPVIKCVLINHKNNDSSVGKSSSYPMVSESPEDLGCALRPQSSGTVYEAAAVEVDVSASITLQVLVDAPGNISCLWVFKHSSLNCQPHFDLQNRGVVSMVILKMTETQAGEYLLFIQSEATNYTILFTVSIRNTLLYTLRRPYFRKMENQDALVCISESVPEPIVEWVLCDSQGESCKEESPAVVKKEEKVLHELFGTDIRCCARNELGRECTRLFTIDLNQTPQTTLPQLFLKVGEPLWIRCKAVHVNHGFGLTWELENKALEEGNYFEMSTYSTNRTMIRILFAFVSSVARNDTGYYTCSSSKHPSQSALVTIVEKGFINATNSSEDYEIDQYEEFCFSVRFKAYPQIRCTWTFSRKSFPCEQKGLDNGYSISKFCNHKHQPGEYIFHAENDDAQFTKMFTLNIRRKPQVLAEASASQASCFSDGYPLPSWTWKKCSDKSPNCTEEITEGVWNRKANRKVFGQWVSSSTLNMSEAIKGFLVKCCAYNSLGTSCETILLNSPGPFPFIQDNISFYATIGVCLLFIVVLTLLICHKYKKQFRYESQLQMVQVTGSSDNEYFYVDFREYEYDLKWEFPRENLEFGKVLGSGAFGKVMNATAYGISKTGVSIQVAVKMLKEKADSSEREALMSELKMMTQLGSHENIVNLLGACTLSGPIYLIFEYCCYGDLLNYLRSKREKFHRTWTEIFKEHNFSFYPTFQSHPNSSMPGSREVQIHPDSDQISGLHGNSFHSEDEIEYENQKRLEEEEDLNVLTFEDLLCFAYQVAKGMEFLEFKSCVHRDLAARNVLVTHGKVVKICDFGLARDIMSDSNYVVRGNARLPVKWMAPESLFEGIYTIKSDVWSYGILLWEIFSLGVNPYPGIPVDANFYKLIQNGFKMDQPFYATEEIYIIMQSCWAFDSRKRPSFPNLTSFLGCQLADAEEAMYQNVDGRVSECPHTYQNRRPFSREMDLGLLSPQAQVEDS
Experimental: as §1, §2

T1 sequence (Q14680 whole entry): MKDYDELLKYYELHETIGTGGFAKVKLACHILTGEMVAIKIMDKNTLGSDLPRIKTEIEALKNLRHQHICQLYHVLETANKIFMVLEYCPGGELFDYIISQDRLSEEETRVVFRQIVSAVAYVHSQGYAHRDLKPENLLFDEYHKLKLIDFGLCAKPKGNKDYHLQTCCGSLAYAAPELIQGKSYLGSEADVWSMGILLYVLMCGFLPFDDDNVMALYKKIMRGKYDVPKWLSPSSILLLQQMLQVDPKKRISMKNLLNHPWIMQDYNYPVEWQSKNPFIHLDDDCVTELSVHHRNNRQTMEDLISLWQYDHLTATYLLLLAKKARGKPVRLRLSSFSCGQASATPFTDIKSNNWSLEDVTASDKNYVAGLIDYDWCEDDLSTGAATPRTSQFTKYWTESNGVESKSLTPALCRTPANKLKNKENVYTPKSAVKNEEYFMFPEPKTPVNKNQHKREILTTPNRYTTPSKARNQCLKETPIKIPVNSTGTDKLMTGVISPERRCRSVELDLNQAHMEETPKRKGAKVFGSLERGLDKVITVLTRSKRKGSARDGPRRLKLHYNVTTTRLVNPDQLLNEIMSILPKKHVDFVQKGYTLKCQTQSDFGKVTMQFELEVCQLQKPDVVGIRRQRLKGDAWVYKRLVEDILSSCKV

Row | SMILES | IC50 (MELK) [nM] | IC50 (FLT3) [nM]
1 | CN(C)[C@@H]1CC[C@H](COc2cncnc2-c2cnn(-c3ccccc3F)c2)C1 [Compound I-7, (1R,3S)-3-(((4-(1-(2-fluorophenyl)-1H-pyrazol-4-yl)pyrimidin-5-yl)oxy)methyl)-N,N-dimethylcyclopentan-1-amine] | 200 to 1000 | 200 to 1000
2 | CN(C)C[C@@H]1CC[C@H](COc2cncnc2-c2cnn(-c3ccccc3F)c2)C1 [Compound I-8, 1-((1R,3S)-3-(((4-(1-(2-fluorophenyl)-1H-pyrazol-4-yl)pyrimidin-5-yl)oxy)methyl)cyclo-pentyl)-N,N-dimethylmethanamine] | < 200 | < 200
3 | NC1CCN(c2cncnc2-c2cnn(-c3ccccc3F)c2)CC1 [Compound I-10, 1-(4-(1-(2-fluorophenyl)-1H-pyrazol-4-yl)pyrimidin-5-yl)piperidin-4-amine] | > 1000 | 200 to 1000
4 | N[C@H]1CC[C@@H](CNc2cncnc2-c2cnn(-c3ccccc3F)c2)CC1 [Compound I-11, N-(((1s,4s)-4-aminocyclohexyl)meth-yl)-4-(1-(2-fluorophenyl)-1H-pyrazol-4-yl)pyrimidin-5-amine] | > 1000 | 200 to 1000
5 | N[C@H]1CC[C@@H](CNc2cncnc2-c2cnn(-c3c(F)cccc3F)c2)CC1 [Compound I-12, N-(((1s, 4s)-4-aminocyclohexyl)methyl)-4-(1-(2,6-difluorophenyl)-1H-pyrazol-4-yl)-pyrimidin-5-amine trifluoroacetate] | > 1000 | 200 to 1000
6 | N[C@@H]1CC[C@@H]1COc1cncnc1-c1cnn(-c2ccccc2F)c1 [Compound I-13, (1R,2S)-2-(((4-(1-(2-fluorophenyl)-1H-pyrazol-4-yl)pyrimidin-5-yl)oxy)methyl)cyclo-butan-1-amine] | > 1000 | > 1000
7 | CC(C)N[C@H]1CC[C@@H](COc2cncnc2-c2cnn(-c3ccccc3F)c2)CC1 [Compound I-15, (1s,4s)-4-(((4-(1-(2-fluorophenyl)-1H-pyrazol-4-yl)pyrimidin-5-yl)oxy)methyl)-N-isopropylcyclohexan-1-amine] | 200 to 1000 | < 200
8 | CC(C)N1CCC(COc2cncnc2-c2cnn(-c3ccccc3F)c2)CC1 [Compound I-16, 4-(1-(2-fluorophenyl)-1H-pyrazol-4-yl)-5-((1-isopropylpiperidin-4-yl)methoxy)pyrim-idine] | > 1000 | > 1000
9 | CC(Oc1cncnc1-c1cnn(-c2ccccc2F)c1)[C@H]1CC[C@@H](N)CC1 (stereo partly drawn) [Compound I-17, (1S,4s)-4-((R)-1-((4-(1-(2-fluorophenyl)-1H-pyrazol-4-yl)pyrimidin-5-yl)oxy)ethyl)cyclo-hexan-1-amine] | 200 to 1000 | 200 to 1000
10 | Cc1cccc(F)c1-n1cc(-c2ncncc2OC[C@H]2CCC[C@@H](N)C2)cn1 [Compound I-18, (1R,3S)-3-(((4-(1-(2-fluoro-6-methylphenyl)-1H-pyrazol-4-yl)pyrimidin-5-yl)oxy)methyl)cyclo-hexan-1-amine] | > 1000 | 200 to 1000
11 | N[C@H]1CC[C@@H](COc2cncnc2-c2cnn(-c3cc(F)cc(F)c3)c2)CC1 [Compound I-20, (1s,4s)-4-(((4-(1-(3,5-difluorophenyl)-1H-pyrazol-4-yl)pyrimidin-5-yl)oxy)methyl)cyclo-hexan-1-amine] | > 1000 | 200 to 1000
12 | N[C@H]1CC[C@@H](COc2cncnc2-c2cnn(-c3ccc(O)c(F)c3)c2)CC1 [Compound I-21, 4-(4-(5-(((1s,4s)-4-aminocyclohexyl)meth-oxy)pyrimidin-4-yl)-1H-pyrazol-1-yl)-2-fluorophenol] | < 200 | < 200
13 | COc1ccc(-n2cc(-c3ncncc3OC[C@H]3CC[C@@H](N)CC3)cn2)cc1F [Compound I-22, (1s,4s)-4-(((4-(1-(3-fluoro-4-methoxyphenyl)-1H-pyrazol-4-yl)pyrimidin-5-yl)oxy)methyl)cyclo-hexan-1-amine] | < 200 | < 200
14 | Fc1ccccc1-n1cc(-c2ncncc2OCC2CCNCC2)cn1 [Compound I-23, 4-(1-(2-fluorophenyl)-1H-pyrazol-4-yl)-5-(piperidin-4-ylmethoxy)pyrim-idine] | < 200 | < 200
15 | Fc1ccccc1-n1cc(-c2ncncc2NCC2CCNCC2)cn1 [Compound I-24, 4-(1-(2-fluorophenyl)-1H-pyrazol-4-yl)-N-(piperidin-4-ylmethyl)pyrimidin-5-amine] | > 1000 | > 1000

More lines, now with the values ahead:

Row | IC50 (MELK) [nM] | IC50 (FLT3) [nM] | SMILES
16 | < 200 | < 200 | N[C@H]1CC[C@@H](COc2cncnc2-c2cnn(-c3c(F)cccc3F)c2)CC1 [Compound I-1, (1s,4s)-4-(((4-(1-(2,6-difluorophenyl)-1H-pyrazol-4-yl)pyrimidin-5-yl)oxy)methyl)cyclo-hexan-1-amine]
17 | > 1000 | 200 to 1000 | N[C@H]1CC[C@@H](COc2cncnc2-c2cnn(-c3ccccc3C(F)(F)F)c2)CC1 [Compound I-2, (1s,4s)-4-(((4-(1-(2-(trifluoromethyl)phen-yl)-1H-pyrazol-4-yl)pyrimidin-5-yl)oxy)methyl)cyclo-hexan-1-amine]
18 | 200 to 1000 | 200 to 1000 | N[C@H]1CC[C@@H](COc2cncnc2-c2cnn(-c3ccccc3OC(F)(F)F)c2)CC1 [Compound I-3, (1s,4s)-4-(((4-(1-(2-(trifluoromethoxy)phen-yl)-1H-pyrazol-4-yl)pyrimidin-5-yl)oxy)methyl)cyclo-hexan-1-amine]
19 | 200 to 1000 | < 200 | N#Cc1ccccc1-n1cc(-c2ncncc2OC[C@H]2CC[C@@H](N)CC2)cn1 [Compound I-4, 2-(4-(5-(((1s,4s)-4-aminocyclohexyl)meth-oxy)pyrimidin-4-yl)-1H-pyrazol-1-yl)benzonitrile]
20 | < 200 | < 200 | COc1ccccc1-n1cc(-c2ncncc2OC[C@H]2CC[C@@H](N)CC2)cn1 [Compound I-5, (1s,4s)-4-(((4-(1-(2-methoxyphenyl)-1H-pyrazol-4-yl)pyrimidin-5-yl)oxy)methyl)cyclo-hexan-1-amine]
21 | 200 to 1000 | 200 to 1000 | N[C@@H]1CC[C@H](COc2cncnc2-c2cnn(-c3ccccc3F)c2)C1 [Compound I-6, (1R,3S)-3-(((4-(1-(2-fluorophenyl)-1H-pyrazol-4-yl)pyrimidin-5-yl)oxy)methyl)cyclo-pentan-1-amine]
22 | 200 to 1000 | < 200 | CN(C)[C@H]1CC[C@@H](COc2cncnc2-c2cnn(-c3ccccc3F)c2)CC1 [Compound I-9, (1s,4s)-4-(((4-(1-(2-fluorophenyl)-1H-pyrazol-4-yl)pyrimidin-5-yl)oxy)methyl)-N,N-dimethylcyclohexan-1-amine]
23 | > 1000 | 200 to 1000 | Cc1cccc(F)c1-n1cc(-c2ncncc2OC[C@H]2CC[C@@H](N)CC2)cn1 [Compound I-14, (1s,4s)-4-(((4-(1-(2-fluoro-6-methylphenyl)-1H-pyrazol-4-yl)pyrimidin-5-yl)oxy)methyl)cyclo-hexan-1-amine]
24 | < 200 | < 200 | N[C@H]1CC[C@@H](CCOc2cncnc2-c2cnn(-c3ccccc3F)c2)CC1 [Compound I-19, (1s,4s)-4-(2-((4-(1-(2-fluorophenyl)-1H-pyrazol-4-yl)pyrimidin-5-yl)oxy)ethyl)cyclo-hexan-1-amine]
25 | < 200 | < 200 | N[C@H]1CC[C@@H](COc2cncnc2-c2cnn(-c3ccccc3F)c2)CC1 [Compound I-25, (1s,4s)-4-(((4-(1-(2-fluorophenyl)-1H-pyrazol-4-yl)pyrimidin-5-yl)oxy)methyl)cyclo-hexan-1-amine]
26 | < 200 | < 200 | N[C@H]1CC[C@H](COc2cncnc2-c2cnn(-c3ccccc3F)c2)CC1 [Compound I-26, (1r,4r)-4-(((4-(1-(2-fluorophenyl)-1H-pyrazol-4-yl)pyrimidin-5-yl)oxy)methyl)cyclo-hexan-1-amine]
